{"source": "ChEMBL document CHEMBL3822440", "about": "“Semi-synthesis and antiproliferative evaluation of PEGylated pentacyclic triterpenes” (Eur J Med Chem, 2016)", "key": {"HT-29 [1]": {"system": "HT-29", "assay": "Induction of apoptosis in human HT-29 cells assessed as late apoptotic cells at cytotoxic IC50 after 72 hrs by Annexin V-FITC/propidium iodide staining based flow cytometry (reference value: 0.65 +/- 0.35%)", "assay_type": "functional"}, "HT-29 [2]": {"system": "HT-29", "assay": "Cell cycle arrest in human HT-29 cells assessed as accumulation at G2/M phase at cytotoxic IC50 after 72 hrs by propidium iodide staining based flow cytometry (reference value: 6.23 +/- 1.7%)", "assay_type": "functional"}, "HT-29 [3]": {"system": "HT-29", "assay": "Induction of apoptosis in human HT-29 cells assessed as live cells at cytotoxic IC50 after 72 hrs by Annexin V-FITC/propidium iodide staining based flow cytometry (reference value: 96.65 +/- 0.78%)", "assay_type": "functional"}, "[4]": {"assay": "Induction of apoptosis in mouse B16F10 cells assessed as necrotic cells at cytotoxic IC50 after 72 hrs by Annexin V-FITC/propidium iodide staining based flow cytometry (reference value: 0.75 +/- 0.07%)", "assay_type": "functional, B16-F10"}, "HT-29 [5]": {"system": "HT-29", "assay": "Potency index, ratio of oleanolic acid IC50 to compound IC50 for human HT-29 cells", "assay_type": "functional"}, "HepG2 [6]": {"system": "HepG2", "assay": "Induction of apoptosis in human HepG2 cells assessed as necrotic cells at cytotoxic IC50 after 72 hrs by Annexin V-FITC/propidium iodide staining based flow cytometry (reference value: 0.1 +/- 0.01%)", "assay_type": "functional"}, "HepG2 [7]": {"system": "HepG2", "assay": "Potency index, ratio of oleanolic acid IC50 to compound IC50 for human HepG2 cells", "assay_type": "functional"}, "HT-29 [8]": {"system": "HT-29", "assay": "Induction of apoptosis in human HT-29 cells assessed as early apoptotic cells at cytotoxic IC50 after 72 hrs by Annexin V-FITC/propidium iodide staining based flow cytometry (reference value: 1.65 +/- 0.07%)", "assay_type": "functional"}, "[9]": {"assay": "Cell cycle arrest in mouse B16F10 cells assessed as accumulation at G0/G1 phase at cytotoxic IC50 after 72 hrs by propidium iodide staining based flow cytometry (reference value: 50.69 +/- 0.61%)", "assay_type": "functional, B16-F10"}, "[10]": {"assay": "Induction of apoptosis in mouse B16F10 cells assessed as live cells at cytotoxic IC50 after 72 hrs by Annexin V-FITC/propidium iodide staining based flow cytometry (reference value: 97.55 +/- 0.5%)", "assay_type": "functional, B16-F10"}, "[11]": {"assay": "Induction of apoptosis in mouse B16F10 cells assessed as late apoptotic cells at cytotoxic IC50 after 72 hrs by Annexin V-FITC/propidium iodide staining based flow cytometry (reference value: 0.75 +/- 0.21%)", "assay_type": "functional, B16-F10"}, "HepG2 [12]": {"system": "HepG2", "assay": "Disruption of mitochondrial membrane potential in human HepG2 cells assessed as rhodamine123 positive cells at cytotoxic IC50 after 72 hrs by propidium iodide staining based fluorescence spectroscopic analysis (reference value: 88.3 +/- 8.87%)", "assay_type": "functional"}, "B16-F10": {"system": "B16-F10", "assay": "Potency index, ratio of oleanolic acid IC50 to compound IC50 for mouse B16F10 cells", "assay_type": "functional"}, "HepG2 [13]": {"system": "HepG2", "assay": "Cell cycle arrest in human HepG2 cells assessed as accumulation at G2/M phase at cytotoxic IC50 after 72 hrs by propidium iodide staining based flow cytometry (reference value: 8.47 +/- 2.55%)", "assay_type": "functional"}, "[14]": {"assay": "Cell cycle arrest in mouse B16F10 cells assessed as accumulation at S phase at cytotoxic IC50 after 72 hrs by propidium iodide staining based flow cytometry (reference value: 48.31 +/- 0.74%)", "assay_type": "functional, B16-F10"}, "HepG2 [15]": {"system": "HepG2", "assay": "Induction of apoptosis in human HepG2 cells assessed as early apoptotic cells at cytotoxic IC50 after 72 hrs by Annexin V-FITC/propidium iodide staining based flow cytometry (reference value: 0.3 +/- 0.01%)", "assay_type": "functional"}, "HepG2 [16]": {"system": "HepG2", "assay": "Induction of apoptosis in human HepG2 cells assessed as late apoptotic cells at cytotoxic IC50 after 72 hrs by Annexin V-FITC/propidium iodide staining based flow cytometry relative to control", "assay_type": "functional"}, "HepG2 [17]": {"system": "HepG2", "assay": "Disruption of mitochondrial membrane potential in human HepG2 cells assessed as rhodamine123 negative cells at cytotoxic IC50 after 72 hrs by propidium iodide staining based fluorescence spectroscopic analysis (reference value: 11.7 +/- 6.8%)", "assay_type": "functional"}, "HT-29 [18]": {"system": "HT-29", "assay": "Cell cycle arrest in human HT-29 cells assessed as accumulation at S phase at cytotoxic IC50 after 72 hrs by propidium iodide staining based flow cytometry (reference value: 48.31 +/- 1.49%)", "assay_type": "functional"}, "[19]": {"assay": "Induction of apoptosis in mouse B16F10 cells assessed as early apoptotic cells at cytotoxic IC50 after 72 hrs by Annexin V-FITC/propidium iodide staining based flow cytometry (reference value: 0.75 +/- 0.07%)", "assay_type": "functional, B16-F10"}, "HepG2 [20]": {"system": "HepG2", "assay": "Cell cycle arrest in human HepG2 cells assessed as accumulation at S phase at cytotoxic IC50 after 72 hrs by propidium iodide staining based flow cytometry (reference value: 54.71 +/- 2.37%)", "assay_type": "functional"}, "[21]": {"assay": "Cell cycle arrest in mouse B16F10 cells assessed as accumulation at G2/M phase at cytotoxic IC50 after 72 hrs by propidium iodide staining based flow cytometry (reference value: 1.01 +/- 0.13%)", "assay_type": "functional, B16-F10"}, "HT-29 [22]": {"system": "HT-29", "assay": "Cytotoxicity against human HT-29 cells assessed as growth inhibition after 72 hrs by MTT assay", "assay_type": "functional, cell-based", "settings": "HT-29, 72 h"}, "HT-29 [23]": {"system": "HT-29", "assay": "Disruption of mitochondrial membrane potential in human HT-29 cells assessed as rhodamine123 negative cells at cytotoxic IC50 after 72 hrs by propidium iodide staining based fluorescence spectroscopic analysis (reference value: 5.8 +/- 0.42%)", "assay_type": "functional"}, "HT-29 [24]": {"system": "HT-29", "assay": "Disruption of mitochondrial membrane potential in human HT-29 cells assessed as rhodamine123 positive cells at cytotoxic IC50 after 72 hrs by propidium iodide staining based fluorescence spectroscopic analysis (reference value: 94.25 +/- 0.35%)", "assay_type": "functional"}, "HepG2 [25]": {"system": "HepG2", "assay": "Induction of apoptosis in human HepG2 cells assessed as live cells at cytotoxic IC50 after 72 hrs by Annexin V-FITC/propidium iodide staining based flow cytometry (reference value: 99.55 +/- 0.07%)", "assay_type": "functional"}, "[26]": {"assay": "Disruption of mitochondrial membrane potential in mouse B16F10 cells assessed as rhodamine123 positive cells at cytotoxic IC50 after 72 hrs by propidium iodide staining based fluorescence spectroscopic analysis (reference value: 95.6 +/- 0.57%)", "assay_type": "functional, B16-F10"}, "HepG2 [27]": {"system": "HepG2", "assay": "Cell cycle arrest in human HepG2 cells assessed as accumulation at G0/G1 phase at cytotoxic IC50 after 72 hrs by propidium iodide staining based flow cytometry (reference value: 39.41 +/- 1.56%)", "assay_type": "functional"}, "HT-29 [28]": {"system": "HT-29", "assay": "Induction of apoptosis in human HT-29 cells assessed as necrotic cells at cytotoxic IC50 after 72 hrs by Annexin V-FITC/propidium iodide staining based flow cytometry (reference value: 1.05 +/- 0.35%)", "assay_type": "functional"}, "HepG2 [29]": {"system": "HepG2", "assay": "Cytotoxicity against human HepG2 cells assessed as growth inhibition after 72 hrs by MTT assay", "assay_type": "functional, cell-based", "settings": "HepG2, 72 h"}, "[30]": {"assay": "Cytotoxicity against mouse B16F10 cells assessed as growth inhibition after 72 hrs by MTT assay", "assay_type": "functional, cell-based", "settings": "B16-F10, 72 h"}, "[31]": {"assay": "Disruption of mitochondrial membrane potential in mouse B16F10 cells assessed as rhodamine123 negative cells at cytotoxic IC50 after 72 hrs by propidium iodide staining based fluorescence spectroscopic analysis (reference value: 4.45 +/- 0.64%)", "assay_type": "functional, B16-F10"}, "HT-29 [32]": {"system": "HT-29", "assay": "Cell cycle arrest in human HT-29 cells assessed as accumulation at G0/G1 phase at cytotoxic IC50 after 72 hrs by propidium iodide staining based flow cytometry (reference value: 55.18 +/- 0.22%)", "assay_type": "functional"}}, "data": [{"smiles": "CC1(C)CC[C@]2(C(=O)NCCCOCCOCCOCCCN)CC[C@]3(C)C(=CC[C@@H]4[C@@]5(C)CC[C@H](O)C(C)(C)[C@@H]5CC[C@]43C)[C@@H]2C1", "values": [{"measurement": "Activity", "setting": "HT-29 [1]", "result": 7.45, "unit": "%"}, {"measurement": "Activity", "setting": "HT-29 [2]", "result": 8.12, "unit": "%"}, {"measurement": "Activity", "setting": "HT-29 [3]", "result": 72.45, "unit": "%"}, {"measurement": "Activity", "setting": "[4]", "result": 0, "unit": "%"}, {"measurement": "Ratio IC50", "setting": "HT-29 [5]", "result": 120.1}, {"measurement": "Activity", "setting": "HepG2 [6]", "result": 0.35, "unit": "%"}, {"measurement": "Ratio IC50", "setting": "HepG2 [7]", "result": 962.7}, {"measurement": "Activity", "setting": "HT-29 [8]", "result": 19.7, "unit": "%"}, {"measurement": "Activity", "setting": "[9]", "result": 63.89, "unit": "%"}, {"measurement": "Activity", "setting": "[10]", "result": 27.55, "unit": "%"}, {"measurement": "Activity", "setting": "[11]", "result": 12.85, "unit": "%"}, {"measurement": "Activity", "setting": "HepG2 [12]", "result": 80.45, "unit": "%"}, {"measurement": "Ratio IC50", "setting": "B16-F10", "result": 28.1}, {"measurement": "Activity", "setting": "HepG2 [13]", "result": 0.34, "unit": "%"}, {"measurement": "Activity", "setting": "[14]", "result": 31.33, "unit": "%"}, {"measurement": "Activity", "setting": "HepG2 [15]", "result": 35.9, "unit": "%"}, {"measurement": "Activity", "setting": "HepG2 [16]", "result": 22.45, "unit": "%"}, {"measurement": "Activity", "setting": "HepG2 [17]", "result": 19.6, "unit": "%"}, {"measurement": "Activity", "setting": "HT-29 [18]", "result": 4.78, "unit": "%"}, {"measurement": "Activity", "setting": "[19]", "result": 59.65, "unit": "%"}, {"measurement": "Activity", "setting": "HepG2 [20]", "result": 46.97, "unit": "%"}, {"measurement": "Activity", "setting": "[21]", "result": 4.78, "unit": "%"}, {"measurement": "IC50", "setting": "HT-29 [22]", "result": 3.58, "unit": "µM"}, {"measurement": "Activity", "setting": "HT-29 [23]", "result": 76.3, "unit": "%"}, {"measurement": "Activity", "setting": "HT-29 [24]", "result": 23.75, "unit": "%"}, {"measurement": "Activity", "setting": "HepG2 [25]", "result": 41.35, "unit": "%"}, {"measurement": "Activity", "setting": "[26]", "result": 20.75, "unit": "%"}, {"measurement": "Activity", "setting": "HepG2 [27]", "result": 52.7, "unit": "%"}, {"measurement": "Activity", "setting": "HT-29 [28]", "result": 0.25, "unit": "%"}, {"measurement": "IC50", "setting": "HepG2 [29]", "result": 0.22, "unit": "µM"}, {"measurement": "IC50", "setting": "[30]", "result": 3.78, "unit": "µM"}, {"measurement": "Activity", "setting": "[31]", "result": 79.3, "unit": "%"}, {"measurement": "Activity", "setting": "HT-29 [32]", "result": 87.11, "unit": "%"}]}]}
